Measurements reported in patent publication US9790233B2, “Compositions and methods of modulating 15-PGDH activity” (CASE WESTERN RESERVE UNIVERSITY, priority 2012, dated 2017).

Test: Survival of irradiated mice receiving a bone marrow transplant
Format: in vivo, C57BL/6J mice
Excerpt: The experimental design is depicted in FIG. 50.
Under the conditions of the mouse colony during this study, control mice receiving 100,000-500,000 cells are all dead between days 4-13 of study. […] Such activity would be of particular utility in settings, such as transplantation with umbilical cord stem cells, in which donor cell numbers are limited.

Structure (SMILES): CCCC[S+]([O-])c1sc2nc(-c3cccs3)cc(-c3ccccc3)c2c1N (stereo not shown) [SW033291, 2-(butylsulfinyl)-4-phenyl-6-(thiophen-2-yl)thieno[2,3-b]pyridin-3-amine]
- number of surviving mice (1 × 10^5 donor marrow cells, Day 2): 3
- number of surviving mice (1 × 10^5 donor marrow cells, Day 3): 3
- number of surviving mice (1 × 10^5 donor marrow cells, Day 4): 2
- number of surviving mice (1 × 10^5 donor marrow cells, Day 5): 1
- number of surviving mice (1 × 10^5 donor marrow cells, Day 6): 0
- number of surviving mice (2 × 10^5 donor marrow cells, Day 2): 3
- number of surviving mice (2 × 10^5 donor marrow cells, Day 3): 3
- number of surviving mice (2 × 10^5 donor marrow cells, Day 4): 3
- number of surviving mice (2 × 10^5 donor marrow cells, Day 5): 3
- number of surviving mice (2 × 10^5 donor marrow cells, Day 6): 2
- number of surviving mice (2 × 10^5 donor marrow cells, Day 7): 2
- number of surviving mice (2 × 10^5 donor marrow cells, Day 8): 2
- number of surviving mice (2 × 10^5 donor marrow cells, Day 9): 2
- number of surviving mice (2 × 10^5 donor marrow cells, Day 10): 2
- number of surviving mice (2 × 10^5 donor marrow cells, Day 11): 2
- number of surviving mice (2 × 10^5 donor marrow cells, Day 12): 1
- number of surviving mice (2 × 10^5 donor marrow cells, Day 13): 0
- number of surviving mice (5 × 10^5 donor marrow cells, Day 2): 3
- number of surviving mice (5 × 10^5 donor marrow cells, Day 3): 3
- number of surviving mice (5 × 10^5 donor marrow cells, Day 4): 3
- number of surviving mice (5 × 10^5 donor marrow cells, Day 5): 3
- number of surviving mice (5 × 10^5 donor marrow cells, Day 6): 3
- number of surviving mice (5 × 10^5 donor marrow cells, Day 7): 3
- number of surviving mice (5 × 10^5 donor marrow cells, Day 8): 2
- number of surviving mice (5 × 10^5 donor marrow cells, Day 9): 2
- number of surviving mice (5 × 10^5 donor marrow cells, Day 10): 2
- number of surviving mice (5 × 10^5 donor marrow cells, Day 11): 2
- number of surviving mice (5 × 10^5 donor marrow cells, Day 12): 2
- number of surviving mice (5 × 10^5 donor marrow cells, Day 13): 2
- number of surviving mice (5 × 10^5 donor marrow cells, Day 19): 2
- number of surviving mice (11 Gy, 5 mg/kg IP bid, 1 × 10^5 donor marrow cells, Day 1): 3
- number of surviving mice (11 Gy, 5 mg/kg IP bid, 2 × 10^5 donor marrow cells, Day 1): 3
- number of surviving mice (11 Gy, 5 mg/kg IP bid, 5 × 10^5 donor marrow cells, Day 1): 3
- survival of transplanted mice (mouse, in vivo): promoted survival of mice receiving a bone marrow transplant
